Tests used:
Format in all cases: in vivo
Kochia (Kochia scoparia) [1] = experiment: Test A preemergence; conditions: Bassia scoparia, pre-emergence, 240 h; for pest or weed control at 125 g/ha: 125 g ai/ha, Preemergence, visual injury rating after approximately 10 d, read-out: Kochia plant response rating (0 to 100 scale, 0 is no effect, 100 is complete control); for pest or weed control at 500 g/ha: 500 g ai/ha, preemergence, visual injury rating about 10 d after treatment, 0 to 100 scale (0 no effect, 100 complete control), read-out: Kochia plant response rating
Summary of the method: (§1)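 Treatment is preemergence as a directed soil spray after planting, or postemergence at the one- to two-leaf stage, with test chemical in a non-phytotoxic solvent mixture plus surfactant. Plants stay in the greenhouse about 10 d before visual injury scoring on a 0 to 100 scale versus untreated controls.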

[2] = tested on: barnyardgrass (Echinochloa crus-galli); experiment: Test A preemergence; conditions: Echinochloa crus-galli, pre-emergence, 240 h; for pest or weed control at 125 g/ha: 125 g ai/ha, Preemergence, visual injury rating after approximately 10 d, read-out: Barnyardgrass plant response rating (0 to 100 scale, 0 is no effect, 100 is complete control); for pest or weed control at 500 g/ha: 500 g ai/ha, preemergence, visual injury rating about 10 d after treatment, 0 to 100 scale (0 no effect, 100 complete control), read-out: Barnyardgrass plant response rating
Summary of the method: as §1

[3] = tested on: giant foxtail (Setaria faberii); experiment: Test A preemergence; conditions: Setaria faberi, pre-emergence, 240 h; for pest or weed control at 125 g/ha: 125 g ai/ha, Preemergence, visual injury rating after approximately 10 d, read-out: Foxtail, Giant plant response rating (0 to 100 scale, 0 is no effect, 100 is complete control); for pest or weed control at 500 g/ha: 500 g ai/ha, preemergence, visual injury rating about 10 d after treatment, 0 to 100 scale (0 no effect, 100 complete control), read-out: Foxtail, Giant plant response rating
Summary of the method: as §1

[4] = tested on: pigweed (Amaranthus retroflexus); experiment: Test A preemergence; conditions: Amaranthus retroflexus, pre-emergence, 240 h; for pest or weed control at 125 g/ha: 125 g ai/ha, Preemergence, visual injury rating after approximately 10 d, read-out: Pigweed plant response rating (0 to 100 scale, 0 is no effect, 100 is complete control); for pest or weed control at 500 g/ha: 500 g ai/ha, preemergence, visual injury rating about 10 d after treatment, 0 to 100 scale (0 no effect, 100 complete control), read-out: Pigweed plant response rating
[5] = tested on: ragweed (common ragweed, Ambrosia elatior); experiment: Test A preemergence; conditions: Ambrosia artemisiifolia, pre-emergence, 240 h; for pest or weed control at 125 g/ha: 125 g ai/ha, Preemergence, visual injury rating after approximately 10 d, read-out: Ragweed plant response rating (0 to 100 scale, 0 is no effect, 100 is complete control); for pest or weed control at 500 g/ha: 500 g ai/ha, preemergence, visual injury rating about 10 d after treatment, 0 to 100 scale (0 no effect, 100 complete control), read-out: Ragweed plant response rating
Summary of the method: as §1

[6] = tested on: ryegrass, Italian (Italian ryegrass, Lolium multiflorum); experiment: Test A preemergence; conditions: Lolium multiflorum, pre-emergence, 240 h; for pest or weed control at 125 g/ha: 125 g ai/ha, Preemergence, visual injury rating after approximately 10 d, read-out: Ryegrass, Italian plant response rating (0 to 100 scale, 0 is no effect, 100 is complete control); for pest or weed control at 500 g/ha: 500 g ai/ha, preemergence, visual injury rating about 10 d after treatment, 0 to 100 scale (0 no effect, 100 complete control), read-out: Ryegrass, Italian plant response rating
Summary of the method: as §1

[7] = tested on: Galium (catchweed bedstraw, Galium aparine); experiment: Test A postemergence; conditions: Galium, post-emergence, 240 h, 125 g ai/ha, Postemergence; visual injury after approximately 10 d; 0 to 100 scale where 0 is no effect and 100 is complete control; read-out: Plant response rating, Galium
Summary of the method: as §1

Kochia (Kochia scoparia) [8] = experiment: Test A postemergence; conditions: Bassia scoparia, post-emergence, 240 h, 125 g ai/ha, Postemergence; visual injury after approximately 10 d; 0 to 100 scale where 0 is no effect and 100 is complete control; read-out: Plant response rating, Kochia
Summary of the method: as §1

[9] = tested on: barnyardgrass (Echinochloa crus-galli); experiment: Test A postemergence; conditions: Echinochloa crus-galli, post-emergence, 240 h, 125 g ai/ha, Postemergence; visual injury after approximately 10 d; 0 to 100 scale where 0 is no effect and 100 is complete control; read-out: Plant response rating, Barnyardgrass
Summary of the method: as §1

[10] = tested on: blackgrass (Alopecurus myosuroides); experiment: Test A postemergence; conditions: Alopecurus myosuroides, post-emergence, 240 h, 125 g ai/ha, Postemergence; visual injury after approximately 10 d; 0 to 100 scale where 0 is no effect and 100 is complete control; read-out: Plant response rating, Blackgrass
Summary of the method: as §1

corn (Zea mays) = experiment: Test A postemergence; conditions: Zea mays, post-emergence, 240 h, 125 g ai/ha, Postemergence; visual injury after approximately 10 d; 0 to 100 scale where 0 is no effect and 100 is complete control
Summary of the method: as §1

[11] = tested on: giant foxtail (Setaria faberii); experiment: Test A postemergence; conditions: Setaria faberi, post-emergence, 240 h, 125 g ai/ha, Postemergence; visual injury after approximately 10 d; 0 to 100 scale where 0 is no effect and 100 is complete control; read-out: Plant response rating, Foxtail, Giant
Summary of the method: as §1

[12] = tested on: pigweed (Amaranthus retroflexus); experiment: Test A postemergence; conditions: Amaranthus retroflexus, post-emergence, 240 h, 125 g ai/ha, Postemergence; visual injury after approximately 10 d; 0 to 100 scale where 0 is no effect and 100 is complete control; read-out: Plant response rating, Pigweed
Summary of the method: as §1

[13] = tested on: ragweed (common ragweed, Ambrosia elatior); experiment: Test A postemergence; conditions: Ambrosia artemisiifolia, post-emergence, 240 h, 125 g ai/ha, Postemergence; visual injury after approximately 10 d; 0 to 100 scale where 0 is no effect and 100 is complete control; read-out: Plant response rating, Ragweed
Summary of the method: as §1

[14] = tested on: ryegrass, Italian (Italian ryegrass, Lolium multiflorum); experiment: Test A postemergence; conditions: Lolium multiflorum, post-emergence, 240 h, 125 g ai/ha, Postemergence; visual injury after approximately 10 d; 0 to 100 scale where 0 is no effect and 100 is complete control; read-out: Plant response rating, Ryegrass, Italian
Summary of the method: as §1

[15] = tested on: wheat (Triticum aestivum); experiment: Test A postemergence; conditions: Triticum aestivum, post-emergence, 240 h, 125 g ai/ha, Postemergence; visual injury after approximately 10 d; 0 to 100 scale where 0 is no effect and 100 is complete control; read-out: Plant response rating, Wheat
Summary of the method: as §1

[16] = tested on: barnyardgrass (Echinochloa crus-galli); experiment: Test B flooded paddy test; conditions: Echinochloa crus-galli, Flood, 250 g ai/ha; scale of 0 to 100 where 0 is no effect and 100 is complete control; read-out: Barnyardgrass plant response rating
Summary of the method: (§2)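 Compound goes directly into floodwater once pots are flooded 3 cm above soil, targeting plants at two leaves; the water depth is then held for the test duration. Plants sit 13–15 d in a greenhouse and are rated visually, 100 denoting complete control.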

[17] = tested on: ducksalad (Heteranthera limosa); experiment: Test B flooded paddy test; conditions: Heteranthera limosa, Flood, 250 g ai/ha; scale of 0 to 100 where 0 is no effect and 100 is complete control; read-out: Ducksalad plant response rating
Summary of the method: as §2

rice (Oryra sativa) = experiment: Test B flooded paddy test; conditions: Oryza sativa, Flood, 250 g ai/ha; scale of 0 to 100 where 0 is no effect and 100 is complete control; read-out: Rice plant response rating
Summary of the method: as §2

[18] = tested on: sedge, umbrella (small-flower umbrella sedge, Cyperus difformis); experiment: Test B flooded paddy test; conditions: Cyperus difformis, Flood, 250 g ai/ha; scale of 0 to 100 where 0 is no effect and 100 is complete control; read-out: Sedge, Umbrella plant response rating
Summary of the method: as §2

Row | Compound | pest or weed control at 125 g/ha (Kochia (Kochia scoparia) [1]) [%] | pest or weed control at 500 g/ha (Kochia (Kochia scoparia) [1]) [%] | pest or weed control at 125 g/ha [2] [%] | pest or weed control at 500 g/ha [2] [%] | pest or weed control at 125 g/ha [3] [%] | pest or weed control at 500 g/ha [3] [%] | pest or weed control at 125 g/ha [4] [%] | pest or weed control at 500 g/ha [4] [%] | pest or weed control at 125 g/ha [5] [%] | pest or weed control at 500 g/ha [5] [%] | pest or weed control at 125 g/ha [6] [%] | pest or weed control at 500 g/ha [6] [%] | pest or weed control at 125 g/ha [7] [%] | pest or weed control at 125 g/ha (Kochia (Kochia scoparia) [8]) [%] | pest or weed control at 125 g/ha [9] [%] | pest or weed control at 125 g/ha [10] [%] | Corn plant response rating (crop injury, 0 = no effect, 100 = complete kill) at 125 g/ha (corn (Zea mays)) [%] | pest or weed control at 125 g/ha [11] [%] | pest or weed control at 125 g/ha [12] [%] | pest or weed control at 125 g/ha [13] [%] | also measured
1 | CCOc1cccc([C@H]2CNC(=O)[C@@H]2C(=O)Nc2cccc(F)c2F)c1 [Compound 950] | 50 | 60 | 100 | 100 | 60 | 90 | 0 | 0 | 0 | 20 | 20 | 70 | 20 | 0 | 90 | 0 | 0 | 0 | 0 | 0 | pest or weed control at 125 g/ha [14]: 20%; plant injury at 125 g/ha [15]: 0%; pest or weed control at 250 g/ha [16]: 65%; pest or weed control at 250 g/ha [17]: 95%; pest or weed control at 250 g/ha (rice (Oryra sativa)): 0%; pest or weed control at 250 g/ha [18]: 0%
2 | CCOc1cccc([C@H]2CNC(=O)[C@@H]2C(=O)Nc2ccc(F)cc2F)c1 [Compound 951] | 0 | 20 | 90 | 90 | 70 | 70 | 0 | 0 | 0 | 0 | 0 | 0 | 0 | 0 | 70 | 0 | 0 | 0 | 0 | 0 | pest or weed control at 125 g/ha [14]: 0%; plant injury at 125 g/ha [15]: 0%; pest or weed control at 250 g/ha [16]: 30%; pest or weed control at 250 g/ha [17]: 90%; pest or weed control at 250 g/ha (rice (Oryra sativa)): 0%; pest or weed control at 250 g/ha [18]: 0%
3 | CCOc1cccc([C@H]2CN(C)C(=O)[C@@H]2C(=O)Nc2ccccc2F)c1 [Compound 955] | 30 | 70 | 100 | 100 | 100 | 100 | 0 | 0 | 0 | 30 | 70 | 60 | 20 | 20 | 90 | 0 | 0 | 80 | 0 | 0 | pest or weed control at 125 g/ha [14]: 30%; plant injury at 125 g/ha [15]: 0%; pest or weed control at 250 g/ha [16]: 70%; pest or weed control at 250 g/ha [17]: 90%; pest or weed control at 250 g/ha (rice (Oryra sativa)): 0%; pest or weed control at 250 g/ha [18]: 0%
4 | O=C1NC[C@H](c2csc(C(F)(F)F)c2)[C@H]1C(=O)Nc1cccc(F)c1F [Compound 957] | 30 | 80 | 70 | 100 | 20 | 70 | 20 | 20 | 0 | 30 | 0 | 40 | 40 | 20 | 80 | 20 | 0 | 0 | 0 | 0 | pest or weed control at 125 g/ha [14]: 20%; plant injury at 125 g/ha [15]: 0%; pest or weed control at 250 g/ha [16]: 30%; pest or weed control at 250 g/ha [17]: 100%; pest or weed control at 250 g/ha (rice (Oryra sativa)): 0%; pest or weed control at 250 g/ha [18]: 0%

— patent US12077503B2, “Substituted cyclic amides and their use as herbicides” (FMC CORPORATION, priority 2015, dated 2024)
